What is called IC50 is the point on the concentration scale where inhibition reaches its midpoint.

Data set [1] relates to SU-DHL-2. Description: Cytotoxicity against human SU-DHL-2 cells assessed as reduction in cell viability after 24 hrs by CellTiter-Glo assay. The class given is functional, cell-based. The note with it: SU-DHL-2, 24 h.
A short description of data set [2]: Cytotoxicity against human OCI-Ly8 cells assessed as reduction in cell viability after 24 hrs by CellTiter-Glo assay. The class given is functional, cell-based. The note with it: OCI-Ly8, 24 h. In general terms: ATP-based viability assays read luminescence as a measure of living cells.
The nature of data set [3]: Cytotoxicity against PBMC (unknown origin) assessed as cell viability at 20 uM after 24 hrs by trypan blue exclusion assay relative to control. It counts as cell-based. The note with it: read-out: Activity.
Data set [4] deals with PBMC. Description: Cytotoxicity against PBMC (unknown origin) assessed as reduction in cell viability at 1 to 20 uM after 24 hrs by trypan blue exclusion assay. It counts as cell-based.
In data set [5] the test system is HL-60. Description: Cytotoxicity against human HL60 cells assessed as reduction in cell viability after 24 hrs by CellTiter-Glo assay. The note with it: HL-60, 24 h. The class given is functional, cell-based.
The subject of data set [6] is Ramos. Description: Cytotoxicity against human Ramos cells assessed as reduction in cell viability after 24 hrs by CellTiter-Glo assay. It counts as functional, cell-based.
In data set [7] the test system is SUD4. Description: Cytotoxicity against human SUDHL4 cells assessed as reduction in cell viability after 24 hrs by CellTiter-Glo assay. It counts as functional, cell-based. The settings on record: SU-DHL-4, 24 h.
The nature of data set [8]: Cytotoxicity against human NB4-LR2 cells assessed as reduction in cell viability after 24 hrs by CellTiter-Glo assay. The class given is functional, cell-based.
For data set [9], the system named is NB-4. Description: Induction of cell differentiation in human NB4 cells at 3 uM after 6 days by light microscopy based NBT reduction assay. It counts as functional.
The test system of data set [10] is OCI-Ly10. The data set can be described thus: Cytotoxicity against human OCI-LY10 cells assessed as reduction in cell viability after 24 hrs by CellTiter-Glo assay. The class given is functional, cell-based. The note with it: OCI-Ly10, 24 h.
For data set [11], the system named is NB-4. The data set can be described thus: Cytotoxicity against human NB4 cells assessed as reduction in cell viability after 24 hrs by CellTiter-Glo assay. The class given is functional, cell-based. The settings on record: NB-4, 24 h.
Data set [12] is described as follows: Induction of cell differentiation in human NB4-LR2 cells assessed as CD11b+ expression at 4 uM after 24 hrs by flow cytometry (reference value: 6.36%). It counts as functional.
The nature of data set [13]: Induction of cell differentiation in human MR2 cells assessed as CD11b+ expression at 2 uM after 3 days by flow cytometry (reference value: 4.3%). The class given is functional.
Data set [14] deals with NB-4. Description: Induction of cell differentiation in human NB4 cells assessed as CD11b positive cells at 3 uM after 6 days by flow cytometry (reference value: 7.25 +/- 1.18%). The class given is functional. On the technique in general: Flow cytometry measures light scatter and fluorescence of single cells or particles in a stream.
A short description of data set [15]: Induction of cell differentiation in human NB4-LR2 cells assessed as CD11b+ expression at 2 uM after 3 days by flow cytometry (reference value: 13.3%). The class given is functional.
Data set [16] addresses T1, Peroxiredoxin-1 (Homo sapiens) (UniProt Q06830).
T1 sequence (whole entry): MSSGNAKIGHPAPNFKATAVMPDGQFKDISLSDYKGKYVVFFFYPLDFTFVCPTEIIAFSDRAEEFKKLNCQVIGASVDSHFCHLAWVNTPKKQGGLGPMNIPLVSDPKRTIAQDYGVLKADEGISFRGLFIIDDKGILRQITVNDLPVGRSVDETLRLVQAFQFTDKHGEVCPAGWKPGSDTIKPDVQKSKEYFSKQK
The data set can be described thus: Binding affinity to wild type recombinant human N-terminal 6His-tagged peroxiredoxin-1 expressed in Escherichia coli BL21 after 1 hr by LC-MS/MS analysis.

Data set [17] relates to NB-4. The data set can be described thus: Induction of cell differentiation in human NB4 cells assessed as CD11b+ expression at 3 uM measured after 6 days by flow cytometry (reference value: 4.58 +/- 1.53%). The class given is functional.
Data set [18] relates to NB-4. The data set can be described thus: Induction of cell differentiation in human NB4 cells assessed as CD11b+ expression at 3 uM pretreated with NAC for 4 hrs followed by compound addition measured after 6 days by flow cytometry (reference value: 4.58 +/- 1.53%). The class given is functional.
The nature of data set [19]: Potentiation of ATRA-induced cell differentiation in human NB4-LR2 cells assessed as CD11b+ expression at 2 uM after 3 days by flow cytometry (reference value: 28.8%). It counts as functional.
In data set [20] the target is T1, Peroxiredoxin-1 (Homo sapiens). Description: Binding affinity to wild type recombinant human N-terminal 6His-tagged peroxiredoxin-1 expressed in Escherichia coli BL21 up to 200 uM by immunoblot analysis.
Data set [21] concerns U-937. Description: Induction of cell differentiation in human U937 cells assessed as CD11b+ expression at 4 uM after 24 hrs by flow cytometry (reference value: 13.46%). The class given is functional.
The test system of data set [22] is NB-4. Description: Cytotoxicity against human NB4 cells assessed as reduction in cell viability pretreated with NAC for 4 hrs followed by compound addition measured after 24 hrs by trypan blue assay. It counts as functional, cell-based.
Data set [23] deals with NB-4. The data set can be described thus: Induction of ROS accumulation in human NB4 cells at 3 uM by CM-H2DCFDA probe based flow cytometry. It counts as functional, cell-based.
Data set [24] concerns NB-4. The data set can be described thus: Induction of cell differentiation in human NB4 cells assessed as CD11b+ expression at 3 uM after 3 days by flow cytometry (reference value: 7.5%). It counts as functional.
Data set [25] concerns A549. The data set can be described thus: Cytotoxicity against human A549 cells assessed as reduction in cell viability after 24 hrs by CellTiter-Glo assay. It counts as functional, cell-based.
In data set [26] the test system is NB-4. The data set can be described thus: Potentiation of ATRA-induced cell differentiation in human NB4 cells assessed as CD11b+ expression at 3 uM after 3 days by flow cytometry (reference value: 56.1%). The class given is functional.
In data set [27] the test system is NB-4. Description: Cytotoxicity against human NB4 cells assessed as reduction in cell viability at 3 uM measured up to 72 hrs by trypan blue exclusion assay. It counts as functional, cell-based.
The test system of data set [28] is NB-4. Description: Induction of cell differentiation in human NB4 cells assessed as reduction in nucleus/cytoplasm ratio at 3 uM after 6 days by Wright-Giemsa staining based assay. The class given is functional.
Data set [29] in a line: Potentiation of ATRA-induced cell differentiation in human MR2 cells assessed as CD11b+ expression at 2 uM after 3 days by flow cytometry (reference value: 24.5%). It counts as functional.
Data set [30] has as its target T2, Peroxiredoxin-2 (Homo sapiens) (UniProt P32119).
T2 sequence (whole entry): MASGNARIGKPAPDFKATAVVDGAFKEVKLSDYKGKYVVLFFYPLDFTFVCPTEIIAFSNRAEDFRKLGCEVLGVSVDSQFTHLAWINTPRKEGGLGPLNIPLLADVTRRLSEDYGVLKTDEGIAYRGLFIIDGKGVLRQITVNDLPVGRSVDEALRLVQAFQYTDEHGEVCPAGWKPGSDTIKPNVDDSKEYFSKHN
Description: Binding affinity to wild type recombinant human N-terminal 6His-tagged peroxiredoxin-2 expressed in Escherichia coli BL21 after 1 hr by LC-MS/MS analysis.

Activity calls are given as the source filed them. The calls are words filed in the database; no cut-off is given here.

Turning to `C=C1C(=O)C2C3=C(CCC4C(C)(C)CCCC34C)CC1C2O` (racemic), the concentration for half-maximal inhibition (IC50) in [1] and in data set [2] was < 5 µM throughout. In addition, in [3], the viability at 24 h, 20 µM came out at 80%. Also, the Activity entry in data set [4] is “Non-Toxic”.
As for `C=C1C(=O)[C@@H]2C3=C(CC[C@@H]4C(C)(C)CCC[C@@]34C)C[C@H]1[C@@H]2O`, the IC50 in [5] was determined as 3.1 µM; in [6], 5.1 µM; in data set [7], 4.8 µM; in data set [8] it was 3.1 µM; in data set [10], 8.4 µM; in [11] it was 4.7 µM. For the same compound, the Activity in [9] was 17%.
Take `C=C1C(=O)[C@H]2C3=C(CC[C@H]4C(C)(C)CCC[C@]34C)C[C@@H]1[C@H]2O`: the IC50 in data set [5] came out at 1.8 µM; in data set [6] it was 1.9 µM; in data set [7], 1.3 µM; in data set [8], 1.6 µM; in data set [10], 3.7 µM; in data set [11], 1.8 µM. In addition, the Activity was 21.4% in data set [12]; 4.9% in [13]; 40.7% in [14]; 29.4% in data set [15]; 44.97% in [17]; 13.2% in [18]. In addition, the Activity in data set [19] was 49.5%; in data set [21], 33.13%; in data set [9], 40%; in [24] it was 16.4%; in data set [26], 80.6%; in data set [29], 32.6%. Besides, the outcome in data set [16], in data set [20], in data set [23], in data set [25], in [28] and in [30] was Active. Besides, the outcome in [22] and in [27] was inactive.

For the origin of these results see ChEMBL document CHEMBL4138286, “ent-Jungermannenone C Triggers Reactive Oxygen Species-Dependent Cell Differentiation in Leukemia Cells” (J Nat Prod, 2018).
